# Experimental data as given in patent US12281225B2, “Process for preparing stable polymers containing vinylimidazole” (BASF SE, priority 2018, dated 2025).
# What was measured:
# [1] = Physical stability; visual assessment (color, turbidity, phase separation); type: physicochemical; design: key: ++: no discernible change with respect to color, turbidity or phase separation; +: marginal change in color number, somewhat increased Tyndall effect but no turbidity; 0: easily discernible increase in color number and moderate turbidity−no phase separation; −: turbidity and change in color number readily discernible by visual assessment; −−: strong color change with strong turbidity and incipient phase separation
# Summary of the method: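 Scoring was by eye on a scale from ++ to −−, where ++ means no change and −− means strong color change, strong turbidity and incipient phase separation. Color, turbidity and phase separation were the criteria.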
# [2] = Iodine color number according to DIN 6162:2014-09; type: physicochemical
# [3] = tested on: Yeast: Candida albicans, Candida valida, Rhodotorula rura, Saccharomyces cerevisiae; assay: Preservation test with periodic inoculation, yeast assessment; type: cell-based; settings: sample stored 60 d at 40° C.
# Summary of the method: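 Semiquantitative growth scores (−− no growth to ++ strong growth) from weekly agar streaks incubated 3 days at 25 °C. Preserved polymer samples got four weekly 0.5 ml inoculations (titer 10^9 organisms/ml), the first two days after preservative addition; testing began fresh and after 60-day storage at 40 °C.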
# [4] = Analysis of active substance: preservative concentration before and after storage in VI-containing polymer solution; type: physicochemical; settings: for active-substance concentration, 0 d, RT: before storage; for active-substance concentration, 14 d, 40° C.: storage 14 d at 40° C.; for active-substance concentration, 28 d, 40° C.: storage 28 d at 40° C.; for active-substance concentration, 60 d 40° C.: storage 60 d at 40° C.
# Summary of the method: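 Preservatives (MIT, BIT, CMIT, OIT, DCOIT, iodopropynyl butyl carbamate) in aqueous vinylpyrrolidone–vinylimidazole copolymer solution quantified after dilution by isocratic RP18 chromatography with UV detection, using an acid-methanol eluent.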
# [5] = Polymer P5 (HP56) with stabilizer
substance,measurement,setting,value
benzalkonium chloride [BAC],"Physical stability, 60 d 40° C.*",[1]; Polymer P1 with stabilizer,+
same,"Physical stability, 60 d 40° C.*",[1]; Polymer P2 with stabilizer,+
same,"Physical stability, 60 d 40° C.*",[1]; Polymer P3 with stabilizer,++
same,"Physical stability, 60 d 40° C.*",[1]; Polymer P4 with stabilizer,+
same,"Physical stability, 60 d 40° C.*",[1]; [5],+
same,"Physical stability, 60 d 40° C.*",[1]; Polymer P6 with stabilizer,+
same,"Physical stability, 60 d 40° C.*",[1]; Polymer P7 with stabilizer,++
same,"Physical stability, 60 d 40° C.*",[1]; Polymer P8 with stabilizer,+
same,"Physical stability, 60 d 40° C.*",[1]; Polymer P9 with stabilizer,+
same,"Iodine color number, 60 d 40° C.",[2]; Polymer P1 with stabilizer,2.8
same,"Iodine color number, start",[2]; Polymer P1 with stabilizer,2.6
same,"Iodine color number, 60 d 40° C.",[2]; Polymer P2 with stabilizer,3.2
same,"Iodine color number, start",[2]; Polymer P2 with stabilizer,3.0
same,"Iodine color number, 60 d 40° C.",[2]; Polymer P3 with stabilizer,3.3
same,"Iodine color number, start",[2]; Polymer P3 with stabilizer,3.2
same,"Iodine color number, 60 d 40° C.",[2]; Polymer P4 with stabilizer,3.3
same,"Iodine color number, start",[2]; Polymer P4 with stabilizer,3.2
same,"Iodine color number, 60 d 40° C.",[2]; [5],3.3
same,"Iodine color number, start",[2]; [5],3.3
same,"Iodine color number, 60 d 40° C.",[2]; Polymer P6 with stabilizer,3.4
same,"Iodine color number, start",[2]; Polymer P6 with stabilizer,3.3
same,"Iodine color number, 60 d 40° C.",[2]; Polymer P7 with stabilizer,3.4
same,"Iodine color number, start",[2]; Polymer P7 with stabilizer,3.3
same,"Iodine color number, 60 d 40° C.",[2]; Polymer P8 with stabilizer,3.4
same,"Iodine color number, start",[2]; Polymer P8 with stabilizer,3.3
same,"Iodine color number, 60 d 40° C.",[2]; Polymer P9 with stabilizer,4.0
same,"Iodine color number, start",[2]; Polymer P9 with stabilizer,3.7
same,"60 d 40° C., yeast assess., 4th inoculation",[3]; Polymer P1,"− (slight growth, max. 100 colonies)"
same,"60 d 40° C., yeast assess., 4th inoculation",[3]; Polymer P2,"− (slight growth, max. 100 colonies)"
same,"60 d 40° C., yeast assess., 4th inoculation",[3]; Polymer P3,"− (slight growth, max. 100 colonies)"
same,"active-substance concentration, 0 d, RT",[4]; in Polymer P1,1000 ppm
same,"active-substance concentration, 14 d, 40° C.",[4]; in Polymer P1,990 ppm
same,"active-substance concentration, 28 d, 40° C.",[4]; in Polymer P1,990 ppm
same,"active-substance concentration, 60 d 40° C.",[4]; in Polymer P1,970 ppm
same,"active-substance concentration, 0 d, RT",[4]; in Polymer P2,1000 ppm
same,"active-substance concentration, 14 d, 40° C.",[4]; in Polymer P2,990 ppm
same,"active-substance concentration, 28 d, 40° C.",[4]; in Polymer P2,990 ppm
same,"active-substance concentration, 60 d 40° C.",[4]; in Polymer P2,970 ppm
same,"active-substance concentration, 0 d, RT",[4]; in Polymer P3,1000 ppm
same,"active-substance concentration, 14 d, 40° C.",[4]; in Polymer P3,970 ppm
same,"active-substance concentration, 28 d, 40° C.",[4]; in Polymer P3,973 ppm
same,"active-substance concentration, 60 d 40° C.",[4]; in Polymer P3,967 ppm
same,"active-substance concentration, 0 d, RT",[4]; in Polymer P4,1000 ppm
same,"active-substance concentration, 14 d, 40° C.",[4]; in Polymer P4,1000 ppm
same,"active-substance concentration, 28 d, 40° C.",[4]; in Polymer P4,991 ppm
same,"active-substance concentration, 60 d 40° C.",[4]; in Polymer P4,977 ppm
same,"active-substance concentration, 0 d, RT",[4]; in Polymer P5 (HP56),1000 ppm
same,"active-substance concentration, 14 d, 40° C.",[4]; in Polymer P5 (HP56),990 ppm
same,"active-substance concentration, 28 d, 40° C.",[4]; in Polymer P5 (HP56),90 ppm
same,"active-substance concentration, 60 d 40° C.",[4]; in Polymer P5 (HP56),970 ppm
same,"active-substance concentration, 0 d, RT",[4]; in Polymer P6,1000 ppm
same,"active-substance concentration, 14 d, 40° C.",[4]; in Polymer P6,990 ppm
same,"active-substance concentration, 28 d, 40° C.",[4]; in Polymer P6,981 ppm
same,"active-substance concentration, 60 d 40° C.",[4]; in Polymer P6,976 ppm
same,"active-substance concentration, 0 d, RT",[4]; in Polymer P7,1000 ppm
same,"active-substance concentration, 14 d, 40° C.",[4]; in Polymer P7,988 ppm
same,"active-substance concentration, 28 d, 40° C.",[4]; in Polymer P7,985 ppm
same,"active-substance concentration, 60 d 40° C.",[4]; in Polymer P7,979 ppm
same,"active-substance concentration, 0 d, RT",[4]; in Polymer P8,1000 ppm
same,"active-substance concentration, 14 d, 40° C.",[4]; in Polymer P8,990 ppm
same,"active-substance concentration, 28 d, 40° C.",[4]; in Polymer P8,990 ppm
same,"active-substance concentration, 60 d 40° C.",[4]; in Polymer P8,970 ppm
same,"active-substance concentration, 0 d, RT",[4]; in Polymer P9,1000 ppm
same,"active-substance concentration, 14 d, 40° C.",[4]; in Polymer P9,990 ppm
same,"active-substance concentration, 28 d, 40° C.",[4]; in Polymer P9,985 ppm
same,"active-substance concentration, 60 d 40° C.",[4]; in Polymer P9,975 ppm
